Test results: article PMC6423280, “New Therapeutic Approach for Targeting Hippo Signalling Pathway” (Scientific Reports, 2019)
Peptide text beside a SMILES is read from it.

What was measured:
[1] = Peptide integrity in human serum (resistance to proteases degradation); assay type: in vitro ADME; details: human serum 250 μl, 37 °C, different times, upon 6 h; MALDI-TOF MS; triplicate
Protocol: Figure 7 Stability of the new generated peptides in human serum. Peptides were incubated at 37 °C in human serum for different periods of time and their integrity (percentage of intact peptide) was analyzed by mass spectrometry (MS). Every measurement was performed in triplicate. Standard deviation is shown.
Peptides were incubated at 37 °C in 250 μl of human serum for several times. Samples were collected and peptide degradation stopped by freezing. Peptides were extracted from samples using the Proteo Miner Protein Enrichment System (Bio-Rad, California, USA). Percentage of intact peptide was estimated by mass spectrometry (MS) using MALDI-TOFF (Brucker Autoflex II, Massachusetts, USA) following their protocols. Measurements were performed in triplicates. MS data were analyzed using appropriated software (Clinprot tools, FLEx analysis, Brucker, Massachusetts, USA) as previously described[8],[9].

[2] = set-up: species or system C3H/S-strain mice; details: mouse, in vivo
Protocol: Figure 8 NLS18-TEAD has anti-tumoral effect on breast cancer xenograft models. (a) C3H/S-strain mice subcutaneously inoculated with 4 × 10^5 TN60-UNLP cells were intraperitoneally treated with 5 mg/kg of NLS18-TEAD or NLS23-TEAD 5 days per week for 4 weeks. Control mice received NaCl. Tumor growth was monitored each other day. The average tumor volume of each group (8 mice per group) is shown (p < 0.018). (b) The weight of the animals and the organs upon 30 days of treatment with the peptides NLS18-TEAD or NLS23-TEAD is shown. Control non-treated mice are also shown. p and t statistic values are shown. […]

Structure (SMILES)	Stability to proteases degradation in human serum (percentage of intact peptide) [1]	Clinical symptoms in the injected animals compared to control non-treated animals [2]
CC(C)C[C@H](NC(=O)[C@H](CCCCN)NC(=O)[C@H](CCCCN)NC(=O)[C@H](CCCCN)NC(=O)[C@H](CCCCN)NC(=O)[C@@H]1CCCN1C(=O)[C@H](Cc1c[nH]c2ccccc12)NC(=O)[C@H](CCCCN)NC(=O)[C@H](CCCCN)NC(=O)[C@H](Cc1c[nH]c2ccccc12)NC(=O)[C@H](CCCCN)NC(=O)[C@H](CCCCN)NC(=O)[C@H](CCCCN)NC(=O)[C@H](CCCCN)NC(=O)[C@H](CCCCN)NC(=O)[C@H](CCCNC(=N)N)NC(=O)[C@H](CCCCN)NC(=O)[C@@H](N)CCCNC(=N)N)C(=O)N[C@@H](CC(=O)O)C(=O)N[C@@H](CCCNC(=N)N)C(=O)N[C@@H](CC(C)C)C(=O)N[C@@H](CCC(N)=O)C(=O)N[C@@H](CC(C)C)C(=O)N[C@H](C(=O)N[C@@H](CCC(=O)O)C(=O)N[C@@H](Cc1ccccc1)C(=O)N[C@@H](CO)C(=O)N[C@@H](C)C(=O)N[C@@H](Cc1ccccc1)C(=O)N[C@H](C(=O)N[C@@H](CCC(=O)O)C(=O)N1CCC[C@H]1C(=O)N1CCC[C@H]1C(=O)N[C@@H](CC(=O)O)C(=O)N[C@@H](C)C(=O)N[C@H](C(=O)N[C@@H](CC(=O)O)C(=O)O)C(C)C)C(C)C)C(C)C [NLS18-TEAD] (H-RKRKKKKKWKKWPKKKKLDRLQLVEFSAFVEPPDAVD-OH)	constant stability	did not detected clinical symptoms
CC(C)C[C@H](NC(=O)[C@H](CCCCN)NC(=O)[C@H](CCCCN)NC(=O)[C@H](CCCCN)NC(=O)[C@H](CCCCN)NC(=O)[C@@H]1CCCN1C(=O)[C@H](CCCCN)NC(=O)[C@H](CCCCN)NC(=O)[C@H](CCCCN)NC(=O)[C@H](Cc1c[nH]c2ccccc12)NC(=O)[C@H](CCCCN)NC(=O)[C@H](CCCCN)NC(=O)[C@H](Cc1c[nH]c2ccccc12)NC(=O)[C@H](CCCCN)NC(=O)[C@H](CCCCN)NC(=O)[C@H](CCCCN)NC(=O)[C@H](CCCCN)NC(=O)[C@H](CCCCN)NC(=O)[C@H](CCCNC(=N)N)NC(=O)[C@H](CCCCN)NC(=O)[C@@H](N)CCCNC(=N)N)C(=O)N[C@@H](CC(=O)O)C(=O)N[C@@H](CCCNC(=N)N)C(=O)N[C@@H](CC(C)C)C(=O)N[C@@H](CCC(N)=O)C(=O)N[C@@H](CC(C)C)C(=O)N[C@H](C(=O)N[C@@H](CCC(=O)O)C(=O)N[C@@H](Cc1ccccc1)C(=O)N[C@@H](CO)C(=O)N[C@@H](C)C(=O)N[C@@H](Cc1ccccc1)C(=O)N[C@H](C(=O)N[C@@H](CCC(=O)O)C(=O)N1CCC[C@H]1C(=O)N1CCC[C@H]1C(=O)N[C@@H](CC(=O)O)C(=O)N[C@@H](C)C(=O)N[C@H](C(=O)N[C@@H](CC(=O)O)C(=O)O)C(C)C)C(C)C)C(C)C [NLS23-TEAD] (H-RKRKKKKKWKKWKKKPKKKKLDRLQLVEFSAFVEPPDAVD-OH)	–	did not detected clinical symptoms
